Source: patent publication US20210285949A1 (priority 2020, published 2021)
Like-named read-outs stand apart in the source and are kept apart here.

Key:
[1] = system: patients with septic shock and elevated adrenomedullin; assay: AdrenOSS-2 phase II clinical trial; assay type: in vivo, human
Source text: AdrenOSS-2 is a double-blind, placebo-controlled, randomized, multicenter, proof of concept and dose-finding phase II clinical trial to investigate the safety, tolerability and efficacy of the N-terminal ADM antibody named Adrecizumab in patients with septic shock and elevated adrenomedullin (Geven et al. BMJ Open 2019; 9:e024475). In total, 301 patients with septic shock and bio-ADM concentration >70 pg/mL were randomized (2:1:1) to treatment with a single intravenous infusion over approximately 1 hour with either placebo (n=152), adrecizumab […] (n=72) or Adrecizumab […] (n=77). All-cause mortality within 28 (90) days after inclusion was 25.8% (34.8%). Mean age was 68.4 years and 61% were male. For the per protocol analysis, n=294 patients remained eligible, and 14-day all-cause mortality rate was 18.5%.
Furthermore, different subpopulations of the cohort were analyzed. Main outcomes were 28-day mortality, change in Horovitz Index (PaO2/FiO2) (at 24 h/48 h/72 h), change in SOFA score (at 24 h/48 h/72 h) or change in respiratory SOFA score component (also based on PaO2/FiO2) (at 24 h/48 h/72 h). All p-values are 2-sided and a p-value of 0.20 should be considered significant.

[2] = system: mice with CLP-induced sepsis; settings: pre-treatment, cited from earlier work
endotoxemic rats = settings: pre-treatment; cited from earlier work
[3] = cited from earlier work
[4] = system: extreme-critically ill COVID-19 patients with acute respiratory distress syndrome (ARDS); settings: cited from earlier work

Adrecizumab: humanized N-terminal anti-ADM monoclonal antibody, heavy chain SEQ ID NO: 35, light chain SEQ ID NO: 36
change in Horovitz-Index ([1]; Horovitz-Index <170 and mechanical ventilation (n=48), after 24 hours (0.48)): trended to be higher | change in SOFA score vs placebo ([1]; Horovitz-Index <170 and mechanical ventilation (n=48), after 24 hours, p=0.032): significantly lower | change in SOFA score vs placebo ([1]; Horovitz-Index <170 and mechanical ventilation (n=48), after 48 hours, p=0.012): significantly lower | change in Horovitz-Index, mean increase ([1]; Horovitz-Index <170 and mechanical ventilation (n=48), after 48 hours, p=0.09): 64.2 | change in SOFA score vs placebo ([1]; Horovitz-Index <170 and mechanical ventilation (n=48), after 72 hours, p=0.028): significantly lower | change in Horovitz-Index, mean increase ([1]; Horovitz-Index <170 and mechanical ventilation (n=48), after 72 hours, p=0.11): 66.4 | 28-day mortality vs placebo ([1]; Horovitz-Index <170 and mechanical ventilation at baseline (n=48), p=0.37): trended to be lower | change in SOFA score vs placebo ([1]; mechanical ventilation at baseline (n=161), after 24 hours, p=0.002): significantly lower | change in respiratory SOFA score vs placebo ([1]; mechanical ventilation at baseline (n=161), after 24 hours, p=0.021): significantly lower | change in Horovitz-Index ([1]; mechanical ventilation at baseline (n=161), after 48 hours, p=0.007): significantly higher | change in respiratory SOFA score vs placebo ([1]; mechanical ventilation at baseline (n=161), after 48 hours, p=0.011): significantly lower | change in SOFA score vs placebo ([1]; mechanical ventilation at baseline (n=161), after 48 hours, p=0.109): significantly lower | change in respiratory SOFA score vs placebo ([1]; mechanical ventilation at baseline (n=161), after 72 hours, p=0.066): significantly lower | change in Horovitz-Index ([1]; mechanical ventilation at baseline (n=161), after 72 hours, p=0.087): significantly higher | change in SOFA score vs placebo ([1]; mechanical ventilation at baseline (n=161), after 72 hours, p=0.31): trended to be lower | change in Horovitz-Index, mean increase ([1]; mechanical ventilation at baseline (n=161), at 24 hours, p=0.155): 56.2 | 28-day mortality vs placebo ([1]; mechanical ventilation at baseline (n=161), p=0.157): significantly lower | change in SOFA score vs placebo ([1]; shock patients with ALI/ARDS (n=80), after 24 hours, p=0.005): significantly lower | change in respiratory SOFA score vs placebo ([1]; shock patients with ALI/ARDS (n=80), after 24 hours, p=0.26): trended to be lower | change in SOFA score vs placebo ([1]; shock patients with ALI/ARDS (n=80), after 48 hours, p=0.025): significantly lower | change in respiratory SOFA score vs placebo ([1]; shock patients with ALI/ARDS (n=80), after 48 hours, p=0.09): significantly lower | change in SOFA score vs placebo ([1]; shock patients with ALI/ARDS (n=80), after 72 hours, p=0.38): trended to be lower | renal vascular leakage ([2]; mice with CLP-induced sepsis): attenuated | 7-day survival ([2]; repeated dose administration (control 0%)): 40% | 7-day survival ([2]; single dose administration (control 10%)): 50% | renal vascular leakage (endotoxemic rats): attenuated | circulating ADM following administration ([3]; animal and human data): potent, dose-dependent increase | safety and tolerability, serious adverse events ([3]; phase I study): no serious adverse events were observed | mortality ([4]; compared with mortality calculated by the SOFA score): lower than expected | PaO2/FiO2 ([4]; single dose, within 12 days): increased | SOFA score and disease severity score ([4]; single dose, within 12 days): decreased in five out of the seven surviving patients | inflammatory parameters C-reactive protein, procalcitonin, and interleukin-6 ([4]; single dose): decreased
